Where two headings read alike, the source gives them in different places.
Tests used:
K91 E. coli = assay type: cell-based
Method: (§1) The biological activities of these peptides were measured using human erythrocytes and E. coli as models for mammalian and bacterial cells, respectively. Hemolysis was monitored in 10 mM Tris, 150 mM NaCl, pH 7.0, while the bacterial assay was conducted in minimal media M9 (Table 1); both of these solutions are sufficiently transparent to allow CD and ultracentrifugation measurements (supplementary material). Under the assay conditions, the peptides gave CD spectra similar to those in Tris buffer, with the exception of H-(β^3-HLeu-β^3-HLys-β^3-HLeu)n-OH, n=5 and 6.
Antibacterial assay was performed by incubation of K 91 E. coli and peptide of different concentrations in minimal media, at pH 7.4. The peptide solution (50 μL) and K 91 E. coli culture (20 μL, grown in minimal media for 24 hr-36 hr) were mixed with 1 mL minimal media. […] The peptide dose required for 50% suppress of bacterial growth was obtained from the smooth fitted OD600 vs. log[peptide] curve.
(§2) The activity and selectivity of peptide 1 and peptide 2 were examined by antibacterial assay and hemolysis experiments. E. Coli and human erythrotytes (RBC) were used as models for bacterial cell and mammalian cell, respectively. The peptide concentration required for 50% bacterial growth suppression (IC50), and peptide concentration required for 50% RBC lysis (HD50) are listed in Table 3. […] The antibacterial activities of peptide 1 and peptide 2 are about the same except peptide 2 has slightly lower IC50. Similar trend has been observed in the previous study, that longer peptide tends to have higher activity. However, the difference in IC50 is much smaller for this series of peptide than the previously studied ones. Antibacterial peptide with good selectivity is usually represented by its low hemolysis ability. […] The HD50 is 670 μM for peptide 1 and 240 μM for peptide 2, which gives a selectivity of 111 for peptide 1 and 60 for peptide 2.

[1] = Peptide binding to phospholipid bilayers by CD, SOPC vesicles; conditions: for helix formation on phosphocholin vesicles (POPC and SOPC): CD, model of mammalian cell membrane
osmY-lux fusion = assay: Stress-induced response assay, induction of osmY-lux fusion; assay type: cell-based; conditions: for induction of osmY-lux: Group II peptides; for osmY gene fusion response: Table 4, stress sensed osmotic shock
Method: (§3) Stress-induced response and growth inhibition assays were carried out on samples of four of the β-peptide and compared to known polycationic peptides.
(§4) Polymyxin B was tested both rich, LB, medium and defined, M9, medium. The other natural peptides were tested in LB medium.
(§5) The β-peptides were tested in M9 medium. * In LB medium (data from Oh et al. Biochem. Biophys. Acta. 2000,1463: 43-54)
(§6) However, similar to the magainins, no induction of the micF-lux fusion was observed. Also, the minimum inhibitory concentrations (MIC's) were determined to be higher than those reported in the published manuscript.
(§7) Samples of these β-peptides 1 and 2 were evaluated in the stress-induced response assays.
(§8) The biolumenescence data result from test carried out according to U.S. Pat. No. 5,683,868, Highly Sensitive Method For Detecting Environmental Insults, issued Nov. 4, 1997 to LaRossa et al., the entire contents of the disclosure of are hereby incorporated by reference, The tests described in this patent permit antibacterial properties of peptides or any other materials to be assessed. […] Along these lines, FIG. 5 illustrates a relationship between relative light units and minutes of exposure of bacteria to the various materials in the legend. P×B represents polymyxin, a known antibacterial material. In the graph, a decrease in RULs corresponds to a decrease in bacteria. […]

recA-lux bioluminescence = assay: Inhibition of recA-lux bioluminescence in M9 media; assay type: cell-based; conditions: inhibition of recA-lux bioluminescence in M9 media (Van Dyk lab)
Method: (§9) ∇in M9 medium (data from Hamuro et al., ref. 5) # In M9 medium.+Hemolysis experiments were performed by incubating a 0.25% suspension of human RBc's in 10 mM Tris buffer containing […] at pH 7.0 with varying amounts of peptide. The hemolytic dose required to lyse 50% of the RBC's is reported as the HD50.
as §8

[2] = Hemolysis assay, 50% lysis of RBC's; assay type: cell-based, human; conditions: human, 0.25% suspension of human erythrocytes (RBCs)
Method: as §1, §9
(§10) Hemolysis experiments were carried out by incubating 0.25% suspension of human erythrocytes (RBC's) with peptides of different concentrations in 150 mM sodium choloride, 10 mM Tris buffer, pH 7.0. The sample was prepared by combining 400 μL of the RBC suspension and […] of the peptide solution. After incubated the sample at 37— C. for 1 hour, the sample was centrifuged at 14,000 rpm for 5 min, and the OD414 of the supernatant was measured. Mellitin (50 μM) was used to get 100% hemolysis. The hemolytic IC50 was obtained by plotting hemolysis percentage vis. peptide concentration, and the concentration required for 50% hemolysis was determined from the smooth curve-fitted graph.
as §2

[3] = system: human erythrocytes (RBC's); assay: Hemolysis assay, 50% lysis of RBC's; assay type: cell-based
Method: as §1, §9, §10, §2

micF-lux fusion = assay: Stress-induced response assay, induction of micF-lux fusion; assay type: cell-based; conditions: for induction of micF-lux: Group II peptides; for micF gene fusion response: Table 4, regulatory gene Rob
Method: as §3, §4, §5, §6, §7, §8

[4] = K91 E. coli, minimal media, pH 7.4 (DeGrado lab), read-out: IC50 *

| Compound | IC50 (K91 E. coli; [4]) [µM] | IC50 (K91 E. coli; Table 5, read-out: IC50) [µM] | helix formation on phosphocholin vesicles (POPC and SOPC) [1] | induction of osmY-lux (osmY-lux fusion) | osmY gene fusion response (osmY-lux fusion) | IC50 (recA-lux bioluminescence) [µM] | HC50 at 1 h ([2]; pH 7) [µM] | HC50 [3] [µM] | HD50 [3] [µM] | induction of micF-lux (micF-lux fusion) | micF gene fusion response (micF-lux fusion) | Kd ([1]; SOPC LUV) [µM] | HC50 at 1 h [2] [µM] |
| --- | --- | --- | --- | --- | --- | --- | --- | --- | --- | --- | --- | --- | --- |
| CC(C)[C@@H](CC(N)=O)NC(=O)C[C@H](CCCCN)NC(=O)C[C@H](C)NC(=O)C[C@@H](NC(=O)C[C@H](CCCCN)NC(=O)C[C@H](C)NC(=O)C[C@@H](NC(=O)C[C@H](CCCCN)NC(=O)C[C@H](C)NC(=O)C[C@@H](NC(=O)C[C@H](CCCCN)NC(=O)C[C@H](C)N)C(C)C)C(C)C)C(C)C [Peptide 1] | 6 | 6 | does not show any formation of helix | induction | yes | 10 | 670 | 670 | 670 | induction | yes |  |  |
| CC(C)[C@@H](CC(N)=O)NC(=O)C[C@H](CCCCN)NC(=O)C[C@H](C)NC(=O)C[C@@H](NC(=O)C[C@H](CCCCN)NC(=O)C[C@H](C)NC(=O)C[C@@H](NC(=O)C[C@H](CCCCN)NC(=O)C[C@H](C)NC(=O)C[C@@H](NC(=O)C[C@H](CCCCN)NC(=O)C[C@H](C)NC(=O)C[C@@H](NC(=O)C[C@H](CCCCN)NC(=O)C[C@H](C)N)C(C)C)C(C)C)C(C)C)C(C)C [Peptide 2] | 4 | 4 | shows increase of helix content | induction | yes | 3 |  | 240 | 240 | induction | yes | 15 | 240 |
